Publication PMC12292233, “Effects of 2-Hydroxypropyl-β-Cyclodextrin on the Antioxidant Efficiency of Some Gallic Acid Derivatives in Soybean Oil-in-Water Emulsions” (Antioxidants, 2025)

Columns and labels:
[1] = DPPH radical scavenging activity of gallates in absence and presence of HPCD; assay type: biochemical; conditions: values given as 10^6 × EC50, T = 25 ± 1 °C, reaction time 3600 s, aqueous citric acid/citrate (0.04 M, pH 3)-methanol 50:50 v/v
Description: The radical scavenging activity of gallates was obtained by employing the free radical 2,2-diphenyl-1-pycrilhydrazyl DPPH^• and by following the method described by García-Perez et al.. The absorbance decrease in DPPH^• (λ= 515 nm) was monitored in the absence and the presence of CD for different concentrations of AOs ([AO] = […]) in an aqueous–methanolic solution (5:5, v/v) at T = 25 °C. […] The radical scavenging activity was measured in terms of the EC50 values, defined as the gallate concentration required to decrease DPPH^• radicals by half.

[2] = Partition constant in soybean oil-water binary mixtures; assay type: physicochemical; conditions: T = 25.0 °C
Description: Table 2 Partition constants values in soybean oil–water binary mixtures (PW^O) and in soybean oil-in-water emulsions (PW^I and PO^I) for gallates in the absence and the presence of HP-CD; T = 25.0 °C.

[3] = Distribution of antioxidants in intact soybean oil-in-water emulsions (16-ArN2+ chemical probe, pseudophase kinetic model); assay type: physicochemical; conditions: for PO^I, partition constant oil-interfacial / PW^I, partition constant water-interfacial / PW^I (app), partition constant water-interfacial: soybean oil-in-water emulsion, Tween 20, T = 25.0 °C; for order of percentage of AO in the interfacial region: at any particular ΦI value
Description: Emulsions contain three regions (oil, interface, and aqueous) with distinct solvent properties, and antioxidants are partitioned between them to different extents depending on their hydrophobicity (Figure 4). To prevent disturbance of the existing equilibria, the partition constants were evaluated in the intact emulsions using a well-established chemical method based on the reaction between a chemical probe, 4-hexadecylbenzenediazonium (16-ArN2^+), and the antioxidants. Kinetic results are then analyzed using a pseudophase kinetic model.
The method, along with its assumptions, advantages, and limitations, are described in detail elsewhere; only the relevant parts will be summarized here. 16-ArN2^+ is specifically designed as a water-insoluble chemical probe due to its long hydrophobic tail but with an ionic head group that makes it oil-insoluble. Thus, the reactive (-N2^+) group is located exclusively in the interfacial region. The rate of its reaction with the antioxidant depends on the effective concentration of the antioxidant in that region, which, in turn, depends on its distribution (Figure 4). The partition constants of the antioxidant between the water interfacial (PW^I) and the oil interfacial (PO^I) regions are described by Equations (10) and (11), respectively, where the magnitudes within parenthesis indicate the local concentrations given in moles per liter for a specific region.(10) PWI=(AOI)/(AOW) (11) POI=(AOI)/(AOO)
By employing the formalism of the pseudophase kinetic model, mathematical equations describing the relationships between the measured rate constant (kobs) for the reaction involving 16-ArN2^+ and the AOs and the partition constants can be derived, as was shown in our previous published work. Equation (12) was employed for the AOs, which are distributed between the three regions. Equation (12) can be simplified to Equation (13) for those antioxidants that only partition between the oil and the interfacial regions.(12) kobs=AOTkIPWIPOI/ΦOPWI+ΦIPWIPOI+ΦWPOI (13) kobs=kIAOTPOI/ΦIPOI+ΦO
With the partition constants known, the percentage of AOs at the interface can be determined, and the effective concentration of AOs in each region can be determined straightforwardly by employing Equations (14)–(16).(14) %AOI=100ΦIPWIPOI/ΦOPWI+ΦIPWIPOI+ΦWPOI (15) %AOI=100ΦIPOI/ΦIPOI+ΦO (16) (AOI)=%AOIAOT/ΦI
The application of the pseudophase kinetic model described above requires the determination of the variation in the observed rate constant (kobs) for the reaction between the chemical probe (16ArN2^+) and the antioxidants with the surfactant concentration. Because emulsions are opaque, a special protocol based on a derivatization method has been used to determine the kobs values. Briefly, unreacted arenediazonium ions were rapidly quenched by employing a suitable coupling agent (N-(1-naphthyl)ethylenediammine, NED), leading to the formation of a stable azo dye (Figure 5). The absorbance of the azo dye formed is proportional to the concentration of the unreacted 16ArN2^+ present in the reaction mixture. Further information regarding the experimental procedure is provided in a previous publication.
The kobs values were determined by fitting the absorbance–time data pairs to the pseudo-first-order kinetic equation (Equation (17), where At, A∞, and A0 stand for the absorbance values at time t, infinitive time, and zero time, respectively).(17) lnAt−A∞=lnA0−A∞−kobst
The distribution of the antioxidants in the intact emulsions was assessed through the analysis of the variation in the observed rate constants (kobs) for the reaction between the chemical probe 16-ArN2^+ and the AOs with the emulsifier volume fraction ΦI (Figure 9). Details of this method can be found elsewhere. For all AOs, kobs values decrease asymptotically 3–6 times upon increasing ΦI from ΦI = 0.005 to ΦI = 0.039. […]

[4] = Kinetics of lipid oxidation (conjugated dienes, AOCS Ti 1a 64) in soybean oil-in-water emulsions; conditions: T = 60 °C; for relative efficiency order in inhibiting lipid peroxidation: 1:9 O/W emulsion, time to 0.5% increase in conjugated dienes; for relative efficiency order in inhibiting lipid peroxidation / effect of addition of HPCD on oxidative stability of the emulsion loaded with the antioxidant: ΦI = 0.008, [AO] = 0.1 mM
Description: The 1:9 oil-in-water emulsions were prepared by mixing 1 mL of stripped soybean oil and 9 mL of buffered aqueous solution (citric–citrate buffer 0.04 M pH 3.0) and different amounts of the surfactant Tween 20 (ΦI = Vsurfactant/Vemulsion = 0.005 − 0.04). Emulsions prepared without antioxidants were used as controls. In the others, the antioxidants GA, PG, OG, and LG were added to the aqueous (GA, PG) or oil (OG, LG) phases. The mixtures were stirred for at least 60 s at 20000 rpm at room temperature by employing a high-speed rotor (Polytron PT 1600 E, Kinematica, Fisher Scientific S.L., Madrid, Spain). All emulsions were prepared in triplicate and reported values are average.
The kinetics of the lipid peroxidation of soybean oil-in-water emulsions were monitored by determining the variation in the formation of conjugated dienes (CDs) with time according to the AOCS Official Method Ti 1a 64 in both the absence (control) and the presence of antioxidants (stoichiometric [AO] = 10^−4 M). Briefly, 1:9 O/W emulsions (ΦI = 0.008) were transferred to 25 mL screw-capped erlenmeyer flasks and were placed in an orbital shaker (Incubator Heidolph 1000 orbital stirrer, Heidolph Scientific Products GmbH, Schwabach, Germany) equipped with a Heidolph thermostat 1010 to the control temperature at 148 rpm and T = 60 °C (±1 °C) in the dark.
Aliquots (25 µL) of the emulsions were removed periodically and diluted to 10 mL with 2-propanol, and the absorbance was measured at λ = 233 nm. The percentage of conjugated dienes (%CD) was determined, as described in the literature, by employing Equation (18), where Coil stands for the concentration of soybean oil in the total volume of the emulsion (density for soybean oil = 0.93 g/mL; T = 25 °C).(18) %CD=1.0769A233nm/Coil(g/L)
The relative efficiency of the antioxidants under the different experimental conditions was quantified by measuring the time needed to increase the CD content by 0.5% (dashed line in Figure 7). We have previously shown that these values are equal to those for the induction period determined from the intersection point of the two linear segments defining the inhibited and uninhibited (propagation) steps [28].

[5] = Water solubility (statement); assay type: physicochemical
[6] = set-up: method as in PMID 34037013, PMID 25180889, PMID 28248497; conditions: based on oxygen uptake; ratio oleic:linoleic:linolenic; ref [25],[26],[27]; cited from earlier work

Row | Compound | EC50 ([1]; 0 M HPCD) [µM] | EC50 ([1]; 1.1·10^−2 M HPCD) [µM] | PO^I, partition constant oil-interfacial ([3]; [HPCD] = 0) | PO^I, partition constant oil-interfacial ([3]; [HPCD] = 0.013 M) | order of percentage of AO in the interfacial region [3] | relative efficiency order in inhibiting lipid peroxidation [4] | effect of addition of HPCD on oxidative stability of the emulsion loaded with the antioxidant ([4]; [HP-CD] = 0.013 M) | relative oxidation rate [6] | other results
1 | CCCOC(=O)c1cc(O)c(O)c(O)c1 [PG, Propyl gallate] | 6.09 ± 0.12 | 5.57 ± 0.01 | 450 ± 26 | 371 ± 15 | %BGI > %PGI > %LGI ≈ %OGI | LG ≈ OG < PG < < BG | decreases the oxidative stability slightly | – | PW^O, partition constant [2]: 0.85 ± 0.01; PW^I, partition constant water-interfacial ([3]; [HPCD] = 0): 382 ± 18; PW^I (app), partition constant water-interfacial ([3]; [HPCD] = 0.013 M): 315 ± 14
2 | CCCCCCCCCCCCOC(=O)c1cc(O)c(O)c(O)c1 [LG, lauryl gallate] | – | – | 27 ± 9 | 25 ± 2 | %BGI > %PGI > %LGI ≈ %OGI | LG ≈ OG < PG < < BG | negligible effect | – | solubility in water [5]: water insoluble
3 | CCCCCCCCOC(=O)c1cc(O)c(O)c(O)c1 [OG, octyl gallate] | 9.02 ± 1.05 | 8.27 ± 0.2 | 26 ± 7 | 25 ± 5 | %BGI > %PGI > %LGI ≈ %OGI | LG ≈ OG < PG < < BG | negligible effect | – | solubility in water [5]: water insoluble
4 | CCCCCCCC/C=C\CCCCCCCC(=O)O [oleic, oleic acid] | – | – | – | – | – | – | – | approximately 1 | –
5 | CCCCC/C=C\C/C=C\CCCCCCCC(=O)O [linoleic, linoleic acid] | – | – | – | – | – | – | – | ~70 | –
6 | 2-Hydroxypropyl-β-cyclodextrin [HPCD] | – | – | – | – | – | – | – | – | effect on the kinetics of oxidation in absence of antioxidants ([4]; 1:9 soybean emulsions without antioxidant, [HP-CD] = 0.013 M): no effect
7 | O=C(O)c1cc(O)c(O)c(O)c1 [GA, gallic acid] | 8.36 ± 0.28 | 7.84 ± 0.08 | – | – | – | – | – | – | –
8 | CC/C=C\C/C=C\C/C=C\CCCCCCCC(=O)O [linolenic, linolenic acid] | – | – | – | – | – | – | – | ~100 | –
9 | CCCCOC(=O)c1cc(O)c(O)c(O)c1 [BG, butyl gallate] | 6.02 ± 0.03 | 5.35 ± 0.04 | 238 ± 8 | 174 ± 9 | %BGI > %PGI > %LGI ≈ %OGI | LG ≈ OG < PG < < BG | decreases the oxidative stability slightly | – | PW^O, partition constant [2]: 3.25 ± 0.03; PW^I, partition constant water-interfacial ([3]; [HPCD] = 0): 772 ± 33; PW^I (app), partition constant water-interfacial ([3]; [HPCD] = 0.013 M): 565 ± 9; relative efficiency order in inhibiting lipid peroxidation ([4]; listed as butyl gallate): highest antioxidant efficiency
